The values that follow come from publication PMC3800496 (ACS Chemical Biology, 2013).

Where only a bound is given, the exact number is not on record here.

Common to all, as to assay: anti-proliferation assay
Holding throughout (assay type): cell-based

One assay deals with T47D(OWT). The note with it: Homo sapiens, 48 h, read-out: anti-proliferation GI50.
The subject of the next assay is SkBr3(WT). Particulars: Homo sapiens, SK-BR-3, 48 h, read-out: anti-proliferation GI50.
Another assay concerns H1975(WT). Particulars: Homo sapiens, NCI-H1975, 48 h, read-out: anti-proliferation GI50.
Another assay relates to SW480(OWT). The note with it: Homo sapiens, SW480, 48 h, read-out: anti-proliferation GI50.
Another assay has as its system EJ(WT). The note with it: 48 h, read-out: anti-proliferation GI50.
The test system of the next assay is SNU-449(OMT). The note with it: Homo sapiens, SNU-449, 48 h, read-out: anti-proliferation GI50.
The subject of a further assay is SaoS2(WT). The note with it: Homo sapiens, SAOS-2, 48 h, read-out: anti-proliferation GI50.
Another assay deals with SNU-1040(OMT). Particulars: Homo sapiens, 48 h, read-out: anti-proliferation GI50.
In the next assay the test system is HCT-116(OWT). The note with it: Homo sapiens, HCT-116, 48 h, read-out: anti-proliferation GI50.
A further assay relates to A549(WT). The note with it: Homo sapiens, A549, 48 h, read-out: anti-proliferation GI50.

`CCN1CCN(Cc2ccc(C(=O)Nc3ccc(C)c(Oc4ccc5c(c4)CC(=O)N5)c3)cc2C(F)(F)F)CC1` [DDR1-IN-1]: the GI50 with T47D(OWT), with SkBr3(WT), in the assay with H1975(WT), in the assay on SW480(OWT), with EJ(WT) and in the assay with SNU-449(OMT) was over 10 µM in each case. Also, the GI50 in the assay on SaoS2(WT) is 8.14 µM; in the assay with SNU-1040(OMT) it was over 10 µM; in the assay with HCT-116(OWT) it was 8.7 µM; in the assay on A549(WT) it was over 10 µM.
